Data as given in patent publication US11780845B2 (Relay Therapeutics, Inc., priority 2019, dated 2023).

Experiments:
FGFR2 = FGFR2 (Homo sapiens (Human), UniProt P21802); assay: Biochemical FGFR2 Caliper assay
SNU-16 = assay: Cell SNU-16 assay; format: cell-based; conditions: Homo sapiens, SNU-16, SNU-16 cells

Chain of FGFR2 (P21802 22-821): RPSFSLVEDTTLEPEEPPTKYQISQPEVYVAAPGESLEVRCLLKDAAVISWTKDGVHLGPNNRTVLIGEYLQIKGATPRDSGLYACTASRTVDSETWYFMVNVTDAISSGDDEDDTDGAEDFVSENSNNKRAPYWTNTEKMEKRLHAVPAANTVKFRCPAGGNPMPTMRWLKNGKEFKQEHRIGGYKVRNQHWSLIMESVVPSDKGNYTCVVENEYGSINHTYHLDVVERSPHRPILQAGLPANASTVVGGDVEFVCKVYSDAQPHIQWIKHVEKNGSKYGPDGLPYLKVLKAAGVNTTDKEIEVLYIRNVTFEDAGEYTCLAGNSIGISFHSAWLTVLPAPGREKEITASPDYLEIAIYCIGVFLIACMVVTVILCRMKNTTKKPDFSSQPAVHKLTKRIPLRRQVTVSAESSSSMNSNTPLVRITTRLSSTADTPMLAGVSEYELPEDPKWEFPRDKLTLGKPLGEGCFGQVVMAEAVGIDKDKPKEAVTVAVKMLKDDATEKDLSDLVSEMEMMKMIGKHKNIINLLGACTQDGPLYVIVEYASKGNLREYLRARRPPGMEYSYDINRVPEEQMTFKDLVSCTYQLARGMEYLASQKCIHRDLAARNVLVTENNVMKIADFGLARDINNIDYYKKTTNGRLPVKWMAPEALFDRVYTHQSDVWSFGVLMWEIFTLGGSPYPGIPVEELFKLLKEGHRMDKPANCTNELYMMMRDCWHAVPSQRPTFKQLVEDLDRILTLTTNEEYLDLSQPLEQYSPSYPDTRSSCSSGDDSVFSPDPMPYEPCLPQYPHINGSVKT

Q: With `C#Cc1ccc(-c2c(-c3ccc(Oc4nccc(C)n4)c(F)c3)c3c(N)ncnc3n2C)c(CC)n1` [Example 1243] as the compound, how does the IC50 (FGFR2) read?
A: The IC50 was < 0.1 µM.

Q: What about the IC50 (SNU-16) of the same compound?
A: The IC50 was ≤ 0.1 µM.

Q: What does the source list for `C#Cc1cc(C)c(-c2c(-c3ccc(Oc4nccc(C)n4)c(F)c3)c3c(N)ncnc3n2CCO)cn1` [Example 1245]?
A: IC50 (FGFR2): < 0.1 µM; IC50 (SNU-16): ≤ 0.1 µM

Q: With `C#Cc1cc(C)c(-c2c(-c3ccc(Oc4ccn(C)n4)c(F)c3)c3c(N)ncnc3n2C)cn1` [Example 1246] as the compound, how does the IC50 (FGFR2) read?
A: The IC50 was < 0.1 µM.

Q: And the IC50 (SNU-16)?
A: The IC50 was ≤ 0.1 µM.

Q: How did the IC50 (FGFR2) turn out when `C#Cc1cc(C)c(-c2c(C3=CC[C@H](C(=O)N4CCC[C@H]4C)CC3)c3c(N)ncnc3n2C)cn1` [Example 1249] was run?
A: Its IC50 is 0.25 to 1 µM.

Q: What about the IC50 (SNU-16) of the same compound?
A: Its IC50 is 0.1 to 0.25 µM.

Q: How did the IC50 (FGFR2) turn out when `C#Cc1cc(Cl)c(-c2c(-c3ccc(Oc4nccc(C)n4)c(F)c3)c3c(N)ncnc3n2C)cn1` [Example 1250] was run?
A: Its IC50 is < 0.1 µM.

Q: What about the IC50 (SNU-16) of the same compound?
A: The IC50 was ≤ 0.1 µM.

Q: `C#Cc1cc(C)c(-c2c(C3=CC[C@H](C(=O)N4CCC[C@H]4C#N)CC3)c3c(N)ncnc3n2C)cn1` [Example 1251] was tested. Which IC50 (FGFR2) did it give?
A: The IC50 was < 0.1 µM.

Q: And the IC50 (SNU-16)?
A: Its IC50 is ≤ 0.1 µM.

Q: `C#Cc1cc(C)c(-c2c(C3=CC[C@@H](C(=O)N4CCC[C@H]4C#N)CC3)c3c(N)ncnc3n2C)cn1` [Example 1252] was tested. Which IC50 (FGFR2) did it give?
A: The IC50 was < 0.1 µM.

Q: And the IC50 (SNU-16)?
A: Its IC50 is ≤ 0.1 µM.

Q: How did the IC50 (FGFR2) turn out when `C#Cc1cc(C(F)F)c(-c2c(-c3ccc(Oc4nccc(C)n4)c(F)c3)c3c(N)ncnc3n2C)cn1` [Example 1253] was run?
A: The IC50 was < 0.1 µM.

Q: What about the IC50 (SNU-16) of the same compound?
A: The IC50 was ≤ 0.1 µM.

Q: What does the source list for `C#Cc1ncc(-c2c(-c3ccc(Oc4nccc(C)n4)c(F)c3)c3c(C)ncnc3n2C)c(C)c1F` [Example 1255]?
A: IC50 (FGFR2): < 0.1 µM; IC50 (SNU-16): ≤ 0.1 µM

Q: Which IC50 (FGFR2) does the source give for `C#Cc1cc(C)c(-c2c(C3=CC[C@H](C(=O)N4CCC[C@@H]4C)CC3)c3c(N)ncnc3n2C)cn1` [Example 1257] here?
A: Its IC50 is 0.25 to 1 µM.

Q: What about the IC50 (SNU-16) of the same compound?
A: The IC50 was 0.25 to 1 µM.

Q: What does the source list for `C#Cc1ncc(-c2c(-c3ccc(C(=O)NCC(F)(F)F)c(OC)c3)c3c(N)ncnc3n2C)c(C)c1F` [Example 1260]?
A: IC50 (FGFR2): < 0.1 µM; IC50 (SNU-16): ≤ 0.1 µM

Q: How did the IC50 (FGFR2) turn out when `C#Cc1ncc(-c2c(-c3ccc(C(=O)NCC(C)C)c(F)c3)c3c(N)ncnc3n2C)c(C)c1F` [Example 1261] was run?
A: The IC50 was < 0.1 µM.

Q: And the IC50 (SNU-16)?
A: Its IC50 is ≤ 0.1 µM.

Q: What does the source list for `C#Cc1cc(C)c(-c2c(-c3ccc(Oc4nccc(C)n4)c(C#N)c3)c3c(N)ncnc3n2C)cn1` [Example 1262]?
A: IC50 (FGFR2): < 0.1 µM; IC50 (SNU-16): ≤ 0.1 µM

Q: Which results are given for `C#Cc1cc(C)c(-c2c(-c3ccc(Oc4nccc(C)n4)c(Cl)c3)c3c(N)ncnc3n2C)cn1` [Example 1263]?
A: IC50 (FGFR2): < 0.1 µM; IC50 (SNU-16): ≤ 0.1 µM

Q: What does the source list for `C#Cc1ncc(-c2c(-c3ccc(Oc4nccc(C)n4)c(Cl)c3)c3c(N)ncnc3n2C)c(C)c1F` [Example 1264]?
A: IC50 (FGFR2): < 0.1 µM; IC50 (SNU-16): ≤ 0.1 µM

Q: What does the source list for `COC(=O)/C=C/CNc1ccc(-c2c(-c3ccc(Oc4nccc(C)n4)c(F)c3)c3c(N)ncnc3n2C)cc1` [Example 1265]?
A: IC50 (FGFR2): < 0.1 µM; IC50 (SNU-16): 0.1 to 0.25 µM

Q: Which results are given for `Cc1ccnc(Oc2ccc(-c3c(-c4ccc(NCC#N)cc4)n(C)c4ncnc(N)c34)cc2F)n1` [Example 1266]?
A: IC50 (FGFR2): 1 to 100 µM; IC50 (SNU-16): 0.25 to 1 µM

Q: Which IC50 (FGFR2) does the source give for `C=C(C)C(=O)Nc1ccc(-c2c(-c3ccc4c(c3)NCCN4C)c3c(N)ncnc3n2C)cc1` [Example 1267] here?
A: Its IC50 is 1 to 100 µM.

Q: And the IC50 (SNU-16)?
A: The IC50 was 1 to 100 µM.

Q: Which IC50 (FGFR2) does the source give for `C=C(C)C(=O)Nc1ccc(-c2c(C3=COCCC3)c3c(N)ncnc3n2C)cc1` [Example 1268] here?
A: The IC50 was 1 to 100 µM.

Q: And the IC50 (SNU-16)?
A: Its IC50 is 1 to 100 µM.

Q: With `C=C(C)C(=O)Nc1ccc(-c2c(C3=CCCCO3)c3c(N)ncnc3n2C)cc1` [Example 1269] as the compound, how does the IC50 (FGFR2) read?
A: The IC50 was 1 to 100 µM.

Q: And the IC50 (SNU-16)?
A: Its IC50 is 1 to 100 µM.

Q: `C=C(C)C(=O)Nc1ccc(-c2c(-c3cc4cccnc4s3)c3c(N)ncnc3n2C)cc1` [Example 1270] was tested. Which IC50 (FGFR2) did it give?
A: Its IC50 is 0.25 to 1 µM.

Q: What about the IC50 (SNU-16) of the same compound?
A: The IC50 was 0.25 to 1 µM.

Q: Which results are given for `C=C(C)C(=O)Nc1ccc(-c2c(-c3ccc(-c4cccnc4)s3)c3c(N)ncnc3n2C)cc1` [Example 1271]?
A: IC50 (FGFR2): 1 to 100 µM; IC50 (SNU-16): 1 to 100 µM

Q: Which results are given for `C=C(C)C(=O)Nc1ccc(-c2c(-c3ccc4ccncc4c3)c3c(N)ncnc3n2C)cc1` [Example 1272]?
A: IC50 (FGFR2): 1 to 100 µM; IC50 (SNU-16): 1 to 100 µM

Q: How did the IC50 (FGFR2) turn out when `C=C(C)C(=O)Nc1ccc(-c2c(-c3coc4ccccc34)c3c(N)ncnc3n2C)cc1` [Example 1273] was run?
A: The IC50 was 1 to 100 µM.

Q: What about the IC50 (SNU-16) of the same compound?
A: The IC50 was 1 to 100 µM.

Q: Which IC50 (FGFR2) does the source give for `C=C(C)C(=O)Nc1ccc(-c2c(-c3ccc4nc(C)oc4c3)c3c(N)ncnc3n2C)cc1` [Example 1274] here?
A: The IC50 was 1 to 100 µM.

Q: And the IC50 (SNU-16)?
A: The IC50 was 1 to 100 µM.

Q: Which IC50 (FGFR2) does the source give for `C=C(C)C(=O)Nc1ccc(-c2c(-c3cnn(C4CCCC4)c3)c3c(N)ncnc3n2C)cc1` [Example 1275] here?
A: Its IC50 is 0.25 to 1 µM.

Q: And the IC50 (SNU-16)?
A: The IC50 was 0.25 to 1 µM.

Q: What does the source list for `C=C(C)C(=O)Nc1ccc(-c2c(-c3cnn(-c4ccccc4)c3C)c3c(N)ncnc3n2C)cc1` [Example 1276]?
A: IC50 (FGFR2): 1 to 100 µM; IC50 (SNU-16): 1 to 100 µM

Q: Which results are given for `C=C(C)C(=O)Nc1ccc(-c2c(-c3ccc4cccnc4c3)c3c(N)ncnc3n2C)cc1` [Example 1277]?
A: IC50 (FGFR2): 0.25 to 1 µM; IC50 (SNU-16): 1 to 100 µM

Q: With `C=C(C)C(=O)Nc1ccc(-c2c(-c3ccc(-c4ccccn4)s3)c3c(N)ncnc3n2C)cc1` [Example 1278] as the compound, how does the IC50 (FGFR2) read?
A: Its IC50 is 0.25 to 1 µM.

Q: What about the IC50 (SNU-16) of the same compound?
A: The IC50 was 0.25 to 1 µM.

Q: `C=C(C)C(=O)Nc1ccc(-c2c(-c3ccc4nc(C)sc4c3)c3c(N)ncnc3n2C)cc1` [Example 1279] was tested. Which IC50 (FGFR2) did it give?
A: Its IC50 is 0.25 to 1 µM.

Q: What about the IC50 (SNU-16) of the same compound?
A: The IC50 was 0.25 to 1 µM.

Q: How did the IC50 (FGFR2) turn out when `C=C(C)C(=O)Nc1ccc(-c2c(-c3ccc4oc(C)nc4c3)c3c(N)ncnc3n2C)cc1` [Example 1280] was run?
A: Its IC50 is 0.25 to 1 µM.

Q: And the IC50 (SNU-16)?
A: Its IC50 is 0.25 to 1 µM.

Q: `C=C(C)C(=O)Nc1ccc(-c2c(-c3cnn(-c4ccccc4)c3)c3c(N)ncnc3n2C)cc1` [Example 1281] was tested. Which IC50 (FGFR2) did it give?
A: Its IC50 is 1 to 100 µM.

Q: What about the IC50 (SNU-16) of the same compound?
A: Its IC50 is 0.25 to 1 µM.

Q: With `C=C(C)C(=O)Nc1ccc(-c2c(-c3ccc4ncccc4c3)c3c(N)ncnc3n2C)cc1` [Example 1282] as the compound, how does the IC50 (FGFR2) read?
A: The IC50 was 1 to 100 µM.

Q: What about the IC50 (SNU-16) of the same compound?
A: The IC50 was 1 to 100 µM.

Q: `C=C(C)C(=O)Nc1ccc(-c2c(-c3ccc4c(c3)NC(=O)C4(C)C)c3c(N)ncnc3n2C)cc1` [Example 1283] was tested. Which IC50 (FGFR2) did it give?
A: Its IC50 is 1 to 100 µM.

Q: And the IC50 (SNU-16)?
A: Its IC50 is 1 to 100 µM.

Q: What does the source list for `C=C(C)C(=O)Nc1ccc(-c2c(-c3cnc4ccccc4c3)c3c(N)ncnc3n2C)cc1` [Example 1284]?
A: IC50 (FGFR2): 1 to 100 µM; IC50 (SNU-16): 1 to 100 µM

Q: For `C=C(C)C(=O)Nc1ccc(-c2c(-c3cnn(-c4ccc(F)cc4)c3)c3c(N)ncnc3n2C)cc1` [Example 1285], which IC50 (FGFR2) is on record?
A: Its IC50 is 0.25 to 1 µM.

Q: And the IC50 (SNU-16)?
A: Its IC50 is 1 to 100 µM.

Q: What does the source list for `C=C(C)C(=O)Nc1ccc(-c2c(-c3ccc4cnccc4c3)c3c(N)ncnc3n2C)cc1` [Example 1286]?
A: IC50 (FGFR2): 0.25 to 1 µM; IC50 (SNU-16): 0.25 to 1 µM

Q: `C=C(C)C(=O)Nc1ccc(-c2c(C3=CCC(C#N)CC3)c3c(N)ncnc3n2C)cc1` (stereo not drawn) [Example 1287] was tested. Which IC50 (FGFR2) did it give?
A: Its IC50 is 1 to 100 µM.

Q: What about the IC50 (SNU-16) of the same compound?
A: The IC50 was 1 to 100 µM.

Q: What does the source list for `C=C(C)C(=O)Nc1ccc(-c2c(-c3ccc4occc4c3)c3c(N)ncnc3n2C)cc1` [Example 1288]?
A: IC50 (FGFR2): 1 to 100 µM; IC50 (SNU-16): 1 to 100 µM

Q: Which IC50 (FGFR2) does the source give for `C=C(C)C(=O)Nc1ccc(-c2c(-c3ccc4c(c3)COCC4)c3c(N)ncnc3n2C)cc1` [Example 1289] here?
A: Its IC50 is 1 to 100 µM.

Q: What about the IC50 (SNU-16) of the same compound?
A: Its IC50 is 1 to 100 µM.

Q: What does the source list for `C=C(C)C(=O)Nc1ccc(-c2c(-c3ccc4[nH]nc(C)c4c3)c3c(N)ncnc3n2C)cc1` [Example 1290]?
A: IC50 (FGFR2): 1 to 100 µM; IC50 (SNU-16): 1 to 100 µM

Q: What does the source list for `C=C(C)C(=O)Nc1ccc(-c2c(-c3cnn(-c4cccc(C(F)(F)F)c4)c3)c3c(N)ncnc3n2C)cc1` [Example 1291]?
A: IC50 (FGFR2): 1 to 100 µM; IC50 (SNU-16): 1 to 100 µM

Q: Which results are given for `C=C(C)C(=O)Nc1ccc(-c2c(-c3ccc4c(c3)CCOC4)c3c(N)ncnc3n2C)cc1` [Example 1292]?
A: IC50 (FGFR2): 1 to 100 µM; IC50 (SNU-16): 1 to 100 µM

Q: What does the source list for `C=C(C)C(=O)Nc1ccc(-c2c(-c3cnc(-c4ccccc4)s3)c3c(N)ncnc3n2C)cc1` [Example 1293]?
A: IC50 (FGFR2): 0.1 to 0.25 µM; IC50 (SNU-16): 0.25 to 1 µM

Q: What does the source list for `C=C(C)C(=O)Nc1ccc(-c2c(-c3ccc4nc[nH]c4c3)c3c(N)ncnc3n2C)cc1` [Example 1294]?
A: IC50 (FGFR2): 0.25 to 1 µM; IC50 (SNU-16): 1 to 100 µM
